Assay results: patent publication US20140187559A1, “INHIBITORS OF THE FIBROBLAST GROWTH FACTOR RECEPTOR” (BLUEPRINT MEDICINES CORPORATION, priority 2012, published 2014)

Assays:
Hep3B cells = assay: Induction of apoptosis (Caspase-Glo3/7) in Hep3B cells; assay type: cell-based; details: 6 hours, FIG. 3
Procedure: Hep3B cells were seeded at 20 k/well in 96-well white plates in 200 ul of DMEM/5% FBS overnight. The next day compound was added at a final DMSO concentration of 0.1% and incubated for 6 hours. Caspase activity was measured according to manufacture instruction (Caspase-Glo3/7 Assay (Promega)). Briefly, 100 ul of Caspase-Glo3/7 reagent was added to each well and incubated for 1 hour in the dark. Luminescence was measured using EnVision.

Hep3B xenograft tumors = assay: Hep3B liver cancer cell subcutaneous xenograft model, tumor volume; assay type: in vivo, Mus Musculus
Procedure: […] female nude mice (Mus Musculus) age 6 to 8 weeks were used. Tumor cell culture and inoculation: Hep3B cells were cultured with EMEM medium (Invitrogen, USA) supplemented with 10% FBS (Gibco, Australia). The cells were harvested in 90% confluence, and the viability was no less than 90%. Mice were implanted subcutaneously (s.c.) with 200 μL of 10×10^6 Hep3B cells in 50% Matrigel in the right flank at the beginning of the study.
Animal grouping and dosing schedule: Ten days after cell implantation, when tumors reached an average volume of 199 mm^3, 45 mice were selected based on tumor volume and randomly assigned to 5 treatment groups (n=9). The day of randomization was denoted as D0 and the treatment was started from then on.
(§1) Tumor volume and body weight measurements: Tumor size was measured twice per week in two dimensions using a caliper, and the volume was expressed in mm^3 using the formula: V=0.5 a×b^2 where a and b were the long and short diameters of the tumor, respectively. Body weight was measured at least twice weekly.
End of in vivo portion: Blood, tumors and livers were collected from 3 mice in each treated group at 4, 12 and 24 hours after the last dose. The left lobe of the liver was collected for pharmacodynamic (PD) studies, and the rest of the liver was stored in formalin for histology. The small tumors were prioritized for use in pharmacokinetic studies. Any remaining tumor was fixed for histological analysis first, and then was snap-frozen for the PD study.

wild type FGFR-4 = target: T1, wild type FGFR-4 (Homo sapiens, UniProt P22455); assay: FGFR-4 wild type assay at Km (Caliper mobility shift); assay type: biochemical; details: for IC50: 400 uM ATP, 25 C, 90 minutes, read-out: FGFR4 IC50; for Ratio FGFR1/FGFR4: [IC50 for FGFR1]/[IC50 for FGFR4]
T1 construct: purchased Carna Biosciences, Inc
T1 sequence (P22455 22-802): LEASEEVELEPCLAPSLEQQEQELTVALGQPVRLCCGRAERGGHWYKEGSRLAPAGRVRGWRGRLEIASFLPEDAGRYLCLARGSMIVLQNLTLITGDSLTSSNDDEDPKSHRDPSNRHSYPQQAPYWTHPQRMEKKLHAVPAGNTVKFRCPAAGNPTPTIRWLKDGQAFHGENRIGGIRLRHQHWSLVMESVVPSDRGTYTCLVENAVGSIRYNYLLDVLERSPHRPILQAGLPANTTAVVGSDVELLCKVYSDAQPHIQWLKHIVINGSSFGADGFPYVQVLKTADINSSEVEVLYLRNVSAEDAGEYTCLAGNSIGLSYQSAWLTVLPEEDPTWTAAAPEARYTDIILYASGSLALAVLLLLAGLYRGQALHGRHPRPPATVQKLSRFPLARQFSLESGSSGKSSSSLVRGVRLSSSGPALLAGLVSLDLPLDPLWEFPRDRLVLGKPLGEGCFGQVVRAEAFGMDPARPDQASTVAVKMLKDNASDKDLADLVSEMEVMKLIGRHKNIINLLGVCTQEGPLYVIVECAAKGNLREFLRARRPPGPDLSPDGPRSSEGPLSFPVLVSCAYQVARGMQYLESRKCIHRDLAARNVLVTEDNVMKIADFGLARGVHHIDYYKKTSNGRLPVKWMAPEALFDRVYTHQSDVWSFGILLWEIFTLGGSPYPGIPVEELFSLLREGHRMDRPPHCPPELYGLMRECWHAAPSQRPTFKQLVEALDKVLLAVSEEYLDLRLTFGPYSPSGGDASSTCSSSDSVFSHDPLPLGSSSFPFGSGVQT
Procedure: (§2) In order to assess the activity of chemical compounds against the relevant kinase of interest, the Caliper LifeSciences electrophoretic mobility shift technology platform is utilized. Fluorescently labeled substrate peptide is incubated in the presence dosed levels of compounds, a set concentration of kinase and of ATP, so that a reflective proportion of the peptide is phosphorylated. At the end of the reaction, the mix of phosphorylated (product) and non-phosphorylated (substrate) peptides are passed through the microfluidic system of the Caliper LabChip® EZ Reader II, under an applied potential difference. The presence of the phosphate group on the product peptide provides a difference in mass and charge between the product peptide and the substrate peptide, resulting in a separation of the substrate and product pools in the sample. As the pools pass the LEDS within the instrument, these pools are detected and resolved as separate peaks. The ratio between these peaks therefore reflects the activity of the chemical matter at that concentration in that well, under those conditions.
(§3) The reaction was stopped by the addition of 70 ul of Stop buffer (100 mM HEPES pH 7.5, 0.015% Brij 35, 35 mM EDTA and 0.2% of Coating Reagent 3 (Caliper Lifesciences)). The plate was then read on a Caliper LabChip® EZ Reader II (protocol settings: —1.9 psi, upstream voltage—700, downstream voltage—3000, post sample sip 35 s).

wild type FGFR-1 = target: T2, wild type FGFR-1 (Homo sapiens, UniProt P11362); assay: FGFR-1 wild type assay at Km (Caliper mobility shift); assay type: biochemical; details: 400 uM ATP, 25 C, 90 minutes; read-out: FGFR1 IC50
T2 construct: purchased Carna Biosciences, Inc
T2 sequence (P11362 22-822): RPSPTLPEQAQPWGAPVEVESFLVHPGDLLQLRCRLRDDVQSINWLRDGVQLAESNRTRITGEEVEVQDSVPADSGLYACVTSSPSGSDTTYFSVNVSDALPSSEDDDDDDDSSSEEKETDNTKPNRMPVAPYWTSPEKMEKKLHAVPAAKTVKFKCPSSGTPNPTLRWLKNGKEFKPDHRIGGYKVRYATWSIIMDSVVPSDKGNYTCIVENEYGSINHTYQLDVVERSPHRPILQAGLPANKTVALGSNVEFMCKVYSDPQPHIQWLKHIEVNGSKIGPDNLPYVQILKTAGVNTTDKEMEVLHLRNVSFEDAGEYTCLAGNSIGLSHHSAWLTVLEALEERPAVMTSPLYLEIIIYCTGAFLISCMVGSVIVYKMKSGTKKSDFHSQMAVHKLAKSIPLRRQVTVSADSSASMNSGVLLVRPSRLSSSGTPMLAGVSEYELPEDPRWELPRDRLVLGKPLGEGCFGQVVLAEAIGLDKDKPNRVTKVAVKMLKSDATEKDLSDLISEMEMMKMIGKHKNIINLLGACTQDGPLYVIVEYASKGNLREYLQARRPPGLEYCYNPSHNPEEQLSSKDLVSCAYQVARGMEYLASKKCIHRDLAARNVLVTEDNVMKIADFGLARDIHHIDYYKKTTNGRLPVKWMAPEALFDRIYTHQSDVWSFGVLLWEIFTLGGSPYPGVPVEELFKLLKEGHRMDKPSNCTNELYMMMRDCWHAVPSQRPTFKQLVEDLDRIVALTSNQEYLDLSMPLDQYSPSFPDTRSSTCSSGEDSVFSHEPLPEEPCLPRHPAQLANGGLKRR
Procedure: as §2
as §3, with “EZReader 2” for “LabChip® EZ Reader II”

[1] = assay type: in vivo; details: 100 and 300 mg/kg PO BID, nude mice
Procedure: as §1
Body weight change (%) of Hep3B-bearing nude mice: FIG. 8 is a line graph depicting the body weight change (%) during the entire study period.

FGFR-4 = FGFR-4 (Homo sapiens, UniProt P22455); assay: Crystal structure of compound bound to FGFR-4 (Cys552); assay type: binding; details: FIG. 4, FIG. 5
FGFR-4, sequence (P22455 22-802): as the sequence (P22455 22-802) above

Row | Ratio FGFR1/FGFR4 (wild type FGFR-4) | IC50 (wild type FGFR-1) | Structure (SMILES) | also measured
1 | – | – | CCN1CCN(c2ccc(Nc3cc(N(C)C(=O)Nc4c(Cl)c(OC)cc(OC)c4Cl)ncn3)cc2)CC1 [BGJ398, reference compound] | induction of apoptosis (Caspase activity) (Hep3B cells): induction of apoptosis, although at a higher concentration; tumor volume compared with vehicle group (Hep3B xenograft tumors; 20 mg/kg PO QD, entire study): significant difference in tumor volume between BGJ398 (20 mg/kg PO QD) and vehicle groups was not observed
2 | A (the ratio is >500) | > 1000 nM | C=CC(=O)Nc1ccccc1Nc1nccc(N2CCN(C(=O)Nc3ccc(C#N)cc3)CC2)n1 [COMPOUND 23] | IC50 (wild type FGFR-4): 100 to 1000 nM
3 | B (the ratio is ≧200 and <500) | 10 to 100 nM | C=CC(=O)Nc1ccccc1Nc1cc2c(cn1)cc(-c1c(Cl)c(OC)cc(OC)c1Cl)c(=O)n2C [COMPOUND 31] | –
4 | C (the ratio is ≧100 and <200) | 100 to 1000 nM | C=CC(=O)Nc1ccc(F)c(F)c1Nc1ncc2cc(-c3c(Cl)c(OC)cc(OC)c3Cl)ccc2n1 [COMPOUND 37] | –
5 | E (the ratio is ≧10 and <50) | 100 to 1000 nM | C=CC(=O)Nc1cccc(F)c1Nc1cc2c(cn1)cc(-c1c(Cl)c(OC)cc(OC)c1Cl)c(=O)n2C [COMPOUND 46] | –
6 | B (the ratio is ≧200 and <500) | 10 to 100 nM | C=CC(=O)Nc1cccc(F)c1Nc1ncc2cc(-c3c(Cl)c(OC)cc(OC)c3Cl)cc(OC)c2n1 [COMPOUND 47] | –
7 | E (the ratio is ≧10 and <50) | 100 to 1000 nM | C=CC(=O)Nc1cccc(C)c1Nc1ncc2c(n1)N(C)C(=O)N(c1c(Cl)c(OC)cc(OC)c1Cl)C2 [COMPOUND 48, N-(2-((6-(2,6-dichloro-3,5-dimethoxyphenyl)-8-methyl-7-oxo-5,6,7,8-tetrahydropyrimido[4,5-d]pyrimidin-2-yl)amino)-3-methylphenyl)acrylamide] | –
8 | E (the ratio is ≧10 and <50) | 100 to 1000 nM | C=CS(=O)(=O)Nc1cccc(C)c1Nc1ncc2cc(-c3c(Cl)c(OC)cc(OC)c3Cl)ccc2n1 [COMPOUND 49A] | IC50 (wild type FGFR-4): 10 to 100 nM
9 | C (the ratio is ≧100 and <200) | 10 to 100 nM | C=CC(=O)N(CCCCN(CC)CC)c1ncc2cc(-c3cc(OC)cc(OC)c3)c(NC(=O)NC(C)(C)C)nc2n1 [COMPOUND 52, N-(7-(3-(tert-butyl)ureido)-6-(3,5-dimethoxyphenyl)pyrido[2,3-d]pyrimidin-2-yl)-N-(4-(diethylamino)butyl)acrylamide] | binding site in crystal structure (FGFR-4): binds to the cysteine at residue 552 of FGFR-4
10 | C (the ratio is ≧100 and <200) | 100 to 1000 nM | C=CC(=O)Nc1cc(N2CCOCC2)cc(C)c1Nc1ncc2cc(-c3c(Cl)c(OC)cc(OC)c3Cl)ccc2n1 [COMPOUND 53] | –
11 | – | – | CNC(=O)c1cc(Oc2ccc(NC(=O)Nc3ccc(Cl)c(C(F)(F)F)c3)cc2)ccn1 [Sorafenib, reference compound] | tumor volume compared with vehicle group (Hep3B xenograft tumors; 30 mg/kg PO QD, Day 4 to Day 19): Statistically significant reduction of tumor volumes

Row | Structure (SMILES) | Ratio FGFR1/FGFR4 (wild type FGFR-4) | IC50 (wild type FGFR-1) | also measured
12 | C=CC(=O)Nc1cccc(C)c1Nc1ncc2cc(-c3c(Cl)c(OC)cc(OC)c3Cl)ccc2n1 [COMPOUND 25, N-(2-((6-(2,6-dichloro-3,5-dimethoxyphenyl)quinazolin-2-yl)amino)-3-methylphenyl)acrylamide] | – | 100 to 1000 nM | induction of apoptosis (Caspase activity) (Hep3B cells): potent induction of apoptosis; tumor regression (Hep3B xenograft tumors; 100 mg/kg PO BID): regressed; tumor volume compared with vehicle group (Hep3B xenograft tumors; 100 mg/kg PO BID, Day 4 to Day 19): Statistically significant reduction of tumor volumes; tumor regression (Hep3B xenograft tumors; 300 mg/kg PO BID): almost disappeared; tumor volume compared with vehicle group (Hep3B xenograft tumors; 300 mg/kg PO BID, Day 4 to Day 19): Statistically significant reduction of tumor volumes; tolerability (body weight change) [1]: well tolerated
13 | C=CC(=O)Nc1cccc(F)c1Nc1ncc2cc(-c3c(Cl)c(OC)cc(OC)c3Cl)ccc2n1 [COMPOUND 27] | C (the ratio is ≧100 and <200) | 10 to 100 nM | –
14 | C=CC(=O)Nc1ccccc1-c1ccn2c(-c3cc(NC(=O)NCC(F)(F)F)cc(OC(C)C)c3)cnc2c1 [COMPOUND 38, N-(2-(3-(3-isopropoxy-5-(3-(2,2,2-trifluoroethyl)ureido)phenyl)imidazo[1,2-a]pyridin-7-yl)phenyl)acrylamide] | E (the ratio is ≧10 and <50) | > 1000 nM | IC50 (wild type FGFR-4): 100 to 1000 nM
15 | C=CC(=O)Nc1cccc(C(F)(F)F)c1Nc1ncc2cc(-c3c(Cl)c(OC)cc(OC)c3Cl)ccc2n1 [COMPOUND 51] | F (the ratio of [IC50 for FGFR1]/[IC50 for FGFR4] is less than 10) | > 1000 nM | IC50 (wild type FGFR-4): 10 to 100 nM
